Assay results as given in ChEMBL document CHEMBL4334438, “Discovery of novel glycogen synthase kinase-3α inhibitors: Structure-based virtual screening, preliminary SAR and biological evaluation for treatment of acute myeloid leukemia” (Eur J Med Chem, 2019).

What was measured:
[1] = target: Mitogen-activated protein kinase 12 (Homo sapiens) (UniProt P53778); assay: Inhibition of recombinant human full length SAPK3 assessed as residual activity at 1 uM using myelin basic protein as substrate measured after 40 mins in presence of [gamma33P]ATP by scintillation counting method relative to control
Sequence of Mitogen-activated protein kinase 12 (Homo sapiens) (P53778 whole entry, the tested form may be a part): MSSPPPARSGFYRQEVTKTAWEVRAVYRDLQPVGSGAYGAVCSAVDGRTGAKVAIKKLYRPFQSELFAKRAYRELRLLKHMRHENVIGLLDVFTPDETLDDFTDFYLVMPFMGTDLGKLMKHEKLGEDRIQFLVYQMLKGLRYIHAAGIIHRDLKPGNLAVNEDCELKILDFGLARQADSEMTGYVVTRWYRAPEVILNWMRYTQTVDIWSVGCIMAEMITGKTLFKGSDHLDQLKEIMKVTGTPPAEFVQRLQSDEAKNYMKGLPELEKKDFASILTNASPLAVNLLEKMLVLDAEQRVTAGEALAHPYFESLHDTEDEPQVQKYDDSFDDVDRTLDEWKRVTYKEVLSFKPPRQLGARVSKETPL

[2] = target: Serine/threonine-protein kinase TAO2 (Homo sapiens) (UniProt Q9UL54); assay: Inhibition of human TAO2 (1 to 320 residues) assessed as residual activity at 1 uM using myelin basic protein as substrate measured after 40 mins in presence of [gamma33P]ATP by scintillation counting method relative to control
Sequence of Serine/threonine-protein kinase TAO2 (Homo sapiens) (Q9UL54 whole entry, the tested form may be a part): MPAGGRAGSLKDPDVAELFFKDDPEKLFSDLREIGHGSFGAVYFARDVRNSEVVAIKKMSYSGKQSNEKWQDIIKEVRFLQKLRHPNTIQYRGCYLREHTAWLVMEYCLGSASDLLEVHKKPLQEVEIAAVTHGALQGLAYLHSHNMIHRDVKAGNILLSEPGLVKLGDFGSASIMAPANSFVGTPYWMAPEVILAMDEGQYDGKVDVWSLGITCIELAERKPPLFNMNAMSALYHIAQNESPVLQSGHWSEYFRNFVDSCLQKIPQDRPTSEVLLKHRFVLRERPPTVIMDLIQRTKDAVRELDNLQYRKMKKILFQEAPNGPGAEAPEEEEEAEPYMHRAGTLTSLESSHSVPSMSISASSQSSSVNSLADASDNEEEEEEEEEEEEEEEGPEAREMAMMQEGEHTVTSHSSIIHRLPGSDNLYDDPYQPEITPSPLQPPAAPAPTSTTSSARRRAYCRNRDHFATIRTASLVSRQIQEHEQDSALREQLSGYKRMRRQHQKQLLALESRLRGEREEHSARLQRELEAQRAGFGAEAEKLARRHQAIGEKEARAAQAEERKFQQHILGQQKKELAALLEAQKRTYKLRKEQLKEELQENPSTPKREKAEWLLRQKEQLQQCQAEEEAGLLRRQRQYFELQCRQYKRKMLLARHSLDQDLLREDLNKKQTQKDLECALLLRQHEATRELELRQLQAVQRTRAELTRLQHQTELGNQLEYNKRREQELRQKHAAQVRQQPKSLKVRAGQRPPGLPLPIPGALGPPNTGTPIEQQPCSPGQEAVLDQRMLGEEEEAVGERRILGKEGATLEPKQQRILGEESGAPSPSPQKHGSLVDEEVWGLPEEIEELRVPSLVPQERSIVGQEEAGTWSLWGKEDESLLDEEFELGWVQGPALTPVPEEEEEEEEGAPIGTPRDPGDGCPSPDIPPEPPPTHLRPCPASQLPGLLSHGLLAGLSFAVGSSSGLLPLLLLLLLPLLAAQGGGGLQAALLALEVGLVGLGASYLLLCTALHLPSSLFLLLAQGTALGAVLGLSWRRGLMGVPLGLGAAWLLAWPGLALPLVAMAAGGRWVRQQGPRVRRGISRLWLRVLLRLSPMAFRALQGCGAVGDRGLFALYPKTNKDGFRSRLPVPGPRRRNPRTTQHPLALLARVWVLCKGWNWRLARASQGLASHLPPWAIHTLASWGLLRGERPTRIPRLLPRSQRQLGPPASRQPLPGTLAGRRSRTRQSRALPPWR

[3] = target: Serine/threonine-protein kinase MARK2 (Homo sapiens) (UniProt Q7KZI7); assay: Inhibition of recombinant full-length human PAR1Balpha assessed as residual activity at 1 uM using KKKVSRSGLYRSPSMPENLNRPR as substrate measured after 40 mins in presence of [gamma33P]ATP by scintillation counting method relative to control
[4] = target: Tyrosine-protein kinase Fer (Homo sapiens) (UniProt P16591); assay: Inhibition of recombinant human FER (541 to end residues) assessed as residual activity at 1 uM using KKKSPGEYVNIEFG as substrate at 40 mins in presence of [gamma-33ATP] by scintillation counting based radiometry assay relative to control
[5] = system: Glycogen synthase kinase-3 alpha (Homo sapiens), P49840 [UNDEFINED MUTATION]; assay: Inhibition of human GSK-3alpha S449A mutant (2 to end residues) assessed as residual activity at 1 uM using phospho GS2 peptide as substrate after 40 mins by [gamma-33ATP] radiometric assay
Sequence of Glycogen synthase kinase-3 alpha (Homo sapiens), P49840 [UNDEFINED MUTATION] (P49840 whole entry, looked up, stated change not applied): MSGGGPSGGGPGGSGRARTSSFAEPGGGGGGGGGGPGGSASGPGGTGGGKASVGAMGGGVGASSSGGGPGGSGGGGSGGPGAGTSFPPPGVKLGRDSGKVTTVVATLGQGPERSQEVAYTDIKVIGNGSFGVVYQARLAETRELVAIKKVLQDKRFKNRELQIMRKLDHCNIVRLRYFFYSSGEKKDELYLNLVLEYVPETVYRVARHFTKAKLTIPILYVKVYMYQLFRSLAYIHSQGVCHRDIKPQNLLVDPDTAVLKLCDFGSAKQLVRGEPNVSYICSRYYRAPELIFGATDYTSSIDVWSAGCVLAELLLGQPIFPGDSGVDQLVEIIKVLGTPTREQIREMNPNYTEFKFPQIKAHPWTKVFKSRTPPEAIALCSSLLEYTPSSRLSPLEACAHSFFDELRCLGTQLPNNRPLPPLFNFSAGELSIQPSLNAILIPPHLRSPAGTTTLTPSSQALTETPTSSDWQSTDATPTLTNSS

Homo sapiens = species on record: Homo sapiens; assay: Inhibition of recombinant human MARK1 V16E/T20S mutant (2 to end residues) assessed as residual activity at 1 uM using KKKVSRSGLYRSPSMPENLNRPR as substrate incubated for 40 mins in presence of [gamma-33ATP by scintillation counting based radiometry assay relative to control
[6] = target: Eukaryotic translation initiation factor 2-alpha kinase 3 (Homo sapiens) (UniProt Q9NZJ5); assay: Inhibition of human PEK (536 to end residues) assessed as residual activity at 1 uM using RSRSRSRSRSRSRSR as substrate measured after 40 mins in presence of [gamma33P]ATP by scintillation counting method relative to control
[7] = target: Tyrosine-protein kinase Lck (Homo sapiens) (UniProt P06239); assay: Inhibition of recombinant full length human LCK activated assessed as residual activity at 1 uM using KVEKIGEGTYGVVYK as substrate after 40 mins in presence of [gamma-33ATP] by scintillation counting based radiometry assay relative to control
[8] = target: Testis-specific serine/threonine-protein kinase 4 (Homo sapiens) (UniProt Q6SA08); assay: Inhibition of recombinant full-length human TSSK4 at 1 uM assessed as residual activity at 1 uM using KKLNRTLSFAEPG as substrate measured after 40 mins in presence of [gamma33P]ATP by scintillation counting method relative to control
[9] = target: Protein-tyrosine kinase 2-beta (Homo sapiens) (UniProt Q14289); assay: Inhibition of recombinant human full length PYK2 assessed as residual activity at 1 uM using poly(Glu, Tyr) 4:1 as substrate measured after 40 mins in presence of [gamma33P]ATP by scintillation counting method relative to control
[10] = target: Tyrosine-protein kinase FRK (Homo sapiens) (UniProt P42685); assay: Inhibition of recombinant human PTK5 (218 to end residues) assessed as residual activity at 1 uM using GGEEEEYFELVKKKK as substrate measured after 40 mins in presence of [gamma33P]ATP by scintillation counting method relative to control
[11] = target: Myosin light chain kinase 2, skeletal/cardiac muscle (Homo sapiens) (UniProt Q9H1R3); assay: Inhibition of recombinant full-length human MYLK2 at 1 uM using KKLNRTLSFAEPG as substrate measured after 40 mins in presence of [gamma33P]ATP by scintillation counting method relative to control; set-up: scale not given: the % may be the effect or the level left
Sequence of Myosin light chain kinase 2, skeletal/cardiac muscle (Homo sapiens) (Q9H1R3 whole entry, the tested form may be a part): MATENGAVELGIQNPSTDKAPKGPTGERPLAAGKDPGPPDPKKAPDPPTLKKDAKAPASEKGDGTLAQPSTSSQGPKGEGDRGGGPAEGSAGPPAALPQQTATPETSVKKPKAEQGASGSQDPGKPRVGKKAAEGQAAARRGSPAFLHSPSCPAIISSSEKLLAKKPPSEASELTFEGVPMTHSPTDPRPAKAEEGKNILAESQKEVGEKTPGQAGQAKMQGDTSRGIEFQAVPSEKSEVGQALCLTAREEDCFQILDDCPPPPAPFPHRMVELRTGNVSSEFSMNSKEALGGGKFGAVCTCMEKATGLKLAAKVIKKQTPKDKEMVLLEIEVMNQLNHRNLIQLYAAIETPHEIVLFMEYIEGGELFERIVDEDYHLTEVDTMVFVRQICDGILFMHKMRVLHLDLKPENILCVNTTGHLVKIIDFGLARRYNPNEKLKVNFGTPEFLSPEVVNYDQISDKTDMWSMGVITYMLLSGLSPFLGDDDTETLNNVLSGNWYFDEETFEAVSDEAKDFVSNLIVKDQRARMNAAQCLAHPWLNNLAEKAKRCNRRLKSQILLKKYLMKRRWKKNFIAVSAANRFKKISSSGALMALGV

[12] = system: Fibroblast growth factor receptor 1 (Homo sapiens), P11362 [V561M]; assay: Inhibition of recombinant human FGFR1 V561M mutant (456 to 765 residues) assessed as residual activity at 1 uM using GGEEEEYFELVKKKK as substrate at 40 mins in presence of [gamma-33ATP] by scintillation counting based radiometry assay relative to control
[13] = target: Serine/threonine-protein kinase STK11 (Homo sapiens) (UniProt Q15831); assay: Inhibition of recombinant human LKB1 assessed as residual activity at 1 uM using LSNLYHQGKFLQTFCGSPLYRRR as substrate after 40 mins in presence of [gamma-33ATP] by scintillation counting based radiometry assay relative to control
Sequence of Serine/threonine-protein kinase STK11 (Homo sapiens) (Q15831 whole entry): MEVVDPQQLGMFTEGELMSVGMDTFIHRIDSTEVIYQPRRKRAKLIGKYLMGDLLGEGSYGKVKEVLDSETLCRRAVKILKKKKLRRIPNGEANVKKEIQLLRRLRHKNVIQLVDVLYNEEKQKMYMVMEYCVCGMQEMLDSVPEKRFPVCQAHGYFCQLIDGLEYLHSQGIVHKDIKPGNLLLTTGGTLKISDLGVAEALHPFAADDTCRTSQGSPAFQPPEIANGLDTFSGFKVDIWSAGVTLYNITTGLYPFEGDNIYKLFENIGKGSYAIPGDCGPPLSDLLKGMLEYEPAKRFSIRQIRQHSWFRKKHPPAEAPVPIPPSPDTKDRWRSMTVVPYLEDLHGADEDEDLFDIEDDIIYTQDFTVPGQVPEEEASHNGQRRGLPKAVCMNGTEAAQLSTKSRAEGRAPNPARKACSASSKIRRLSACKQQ

[14] = target: Dual specificity protein kinase CLK1 (Homo sapiens) (UniProt P49759); assay: Inhibition of recombinant human CLK1 (130 to end residues) assessed as residual activity at 1 uM using ERMRPRKRQGSVR as substrate incubated 40 mins in presence of [gamma-33ATP] by scintillation counting based radiometry assay relative to control
Sequence of Dual specificity protein kinase CLK1 (Homo sapiens) (P49759 whole entry, looked up): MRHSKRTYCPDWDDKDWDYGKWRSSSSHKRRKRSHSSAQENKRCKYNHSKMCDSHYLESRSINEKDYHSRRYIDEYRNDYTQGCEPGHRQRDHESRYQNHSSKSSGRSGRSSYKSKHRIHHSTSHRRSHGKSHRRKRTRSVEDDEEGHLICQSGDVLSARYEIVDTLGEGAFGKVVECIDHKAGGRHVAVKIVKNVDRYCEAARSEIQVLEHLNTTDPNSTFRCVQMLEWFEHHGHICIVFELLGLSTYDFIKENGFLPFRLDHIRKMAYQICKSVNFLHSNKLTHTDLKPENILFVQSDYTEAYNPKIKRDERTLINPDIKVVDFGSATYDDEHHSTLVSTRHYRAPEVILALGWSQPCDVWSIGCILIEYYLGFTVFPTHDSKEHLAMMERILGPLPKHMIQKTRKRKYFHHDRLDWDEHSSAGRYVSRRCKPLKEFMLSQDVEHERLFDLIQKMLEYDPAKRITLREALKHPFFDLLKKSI

[15] = target: Ephrin type-A receptor 3 (Homo sapiens) (UniProt P29320); assay: Inhibition of recombinant human EphA3 (578 to end residues) assessed as residual activity at 1 uM using poly(Glu, Tyr) 4:1 as substrate at 40 mins in presence of [gamma-33ATP] by scintillation counting based radiometry assay relative to control
[16] = system: SNF-related serine/threonine-protein kinase (Homo sapiens), Q9NRH2 [UNDEFINED MUTATION]; assay: Inhibition of human SNRK E97G/P116A mutant (65 to 409 residues) assessed as residual activity at 1 uM using KKLRRTLSFAEPG as substrate measured after 40 mins in presence of [gamma33P]ATP by scintillation counting method relative to control
[17] = target: Mitogen-activated protein kinase 1 (Homo sapiens) (UniProt P28482); assay: Inhibition of recombinant full length human MAPK1 assessed as residual activity at 1 uM using myelin basic protein as substrate incubated for 40 mins in presence of [gamma-33P]ATP by scintillation counting based radiometry assay relative to control
Sequence of Mitogen-activated protein kinase 1 (Homo sapiens) (P28482 whole entry): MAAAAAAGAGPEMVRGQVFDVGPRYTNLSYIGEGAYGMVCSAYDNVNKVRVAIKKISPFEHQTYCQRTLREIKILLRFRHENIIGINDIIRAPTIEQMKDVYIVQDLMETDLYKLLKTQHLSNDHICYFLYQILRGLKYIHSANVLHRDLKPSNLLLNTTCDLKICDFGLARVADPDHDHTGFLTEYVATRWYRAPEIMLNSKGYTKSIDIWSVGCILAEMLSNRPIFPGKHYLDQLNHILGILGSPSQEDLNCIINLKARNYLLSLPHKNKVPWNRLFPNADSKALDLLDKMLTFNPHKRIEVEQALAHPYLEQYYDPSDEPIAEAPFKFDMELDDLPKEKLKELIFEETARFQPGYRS

[18] = target: Serine/threonine-protein kinase D3 (Homo sapiens) (UniProt O94806); assay: Inhibition of recombinant full-length human PKD3 assessed as residual activity at 1 uM using KKLRRTLSVA as substrate measured after 40 mins in presence of [gamma33P]ATP by scintillation counting method relative to control
Sequence of Serine/threonine-protein kinase D3 (Homo sapiens) (O94806 whole entry): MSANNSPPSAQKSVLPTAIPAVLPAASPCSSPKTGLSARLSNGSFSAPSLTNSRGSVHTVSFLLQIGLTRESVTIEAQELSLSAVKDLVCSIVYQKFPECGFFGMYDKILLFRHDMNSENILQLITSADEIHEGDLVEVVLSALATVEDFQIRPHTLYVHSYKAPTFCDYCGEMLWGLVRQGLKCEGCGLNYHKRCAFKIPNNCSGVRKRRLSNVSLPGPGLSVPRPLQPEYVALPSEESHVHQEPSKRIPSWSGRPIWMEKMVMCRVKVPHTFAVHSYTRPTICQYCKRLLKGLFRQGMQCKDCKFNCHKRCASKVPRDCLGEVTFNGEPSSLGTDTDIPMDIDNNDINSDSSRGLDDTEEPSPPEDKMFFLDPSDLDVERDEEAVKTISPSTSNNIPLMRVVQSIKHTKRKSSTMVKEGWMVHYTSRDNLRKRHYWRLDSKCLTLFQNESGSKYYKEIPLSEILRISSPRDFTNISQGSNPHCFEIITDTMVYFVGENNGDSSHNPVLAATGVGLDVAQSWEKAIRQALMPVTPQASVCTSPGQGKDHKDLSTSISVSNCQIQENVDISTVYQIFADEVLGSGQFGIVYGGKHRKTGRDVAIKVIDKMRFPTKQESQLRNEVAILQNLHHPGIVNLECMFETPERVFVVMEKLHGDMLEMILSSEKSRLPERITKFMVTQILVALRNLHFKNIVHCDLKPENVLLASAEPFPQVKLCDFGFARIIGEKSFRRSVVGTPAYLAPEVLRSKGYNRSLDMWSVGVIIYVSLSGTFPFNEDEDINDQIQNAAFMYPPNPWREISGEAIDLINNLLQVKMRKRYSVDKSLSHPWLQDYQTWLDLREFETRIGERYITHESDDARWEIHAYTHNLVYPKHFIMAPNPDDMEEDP

[19] = target: Tyrosine-protein kinase TXK (Homo sapiens) (UniProt P42681); assay: Inhibition of human Txk (256 to end residues) assessed as residual activity at 1 uM using GEEPLYWSFPAKKK as substrate measured after 40 mins in presence of [gamma33P]ATP by scintillation counting method relative to control
[20] = target: Serine/threonine-protein kinase WNK3 (Homo sapiens) (UniProt Q9BYP7); assay: Inhibition of human WNK3 (1 to 434 residues) assessed as residual activity at 1 uM using myelin basic protein as substrate measured after 40 mins in presence of [gamma33P]ATP by scintillation counting method relative to control

Row | SMILES | Activity [1] [%] | Activity [2] [%] | Activity [3] [%] | Activity [4] [%] | Activity [5] [%] | Activity (Homo sapiens) [%] | Activity [6] [%] | Activity [7] [%] | Activity [8] [%] | Activity [9] [%] | Activity [10] [%] | Activity [11] [%] | Activity [12] [%] | Activity [13] [%] | Activity [14] [%] | Activity [15] [%] | Activity [16] [%] | Activity [17] [%] | Activity [18] [%] | Activity [19] [%] | also measured
1 | N=C1NC(=O)/C(=C\c2ccc(-c3cccc([N+](=O)[O-])c3)o2)S1 | 97 | 79 | 105 | 93 | 8 | 89 | 99 | 93 | 102 | 103 | 92 | 98 | 91 | 37 | 50 | 111 | 110 | 97 | 89 | 100 | Activity [20]: 99%
2 | C=CCOC(=O)c1cc(-c2ccc(/C=C3/NC(=S)NC3=O)o2)ccc1Cl | 94 | 100 | 95 | 105 | 10 | 91 | 95 | 76 | 121 | 104 | 96 | 92 | 102 | 93 | 26 | 97 | 83 | 106 | 94 | 104 | Activity [20]: 102%
